Assay results from PubChem BioAssay AID588568 (The Scripps Research Institute Molecular Screening Center, 2011).
Activity calls are given as the source filed them. How the calls were made is not given here.

molecular target: Melanin-concentrating hormone receptor 1 (Homo sapiens) (UniProt Q99705); assay: antagonist activity at MCH receptor 1 – cell-based, fluorescence, set 4, counter-screen for GPR7 antagonist project, dose response (AID 588568); details: MCHR1-expressing cells, fluorescence antagonist assay; run 1

| Compound | IC50 |
| --- | --- |
| O=c1c(Oc2ccc3occc3c2)c(Cl)cnn1Cc1cccc2ccccc12 | > 20 µM (inactive) |
| CCOc1ccc(Oc2c(Cl)cnn(-c3cc(C)cc(C)c3)c2=O)cc1 | 2.41 µM |
| COc1ccc(Oc2c(OC)nn(-c3cccc(C)c3)c(=O)c2Oc2ccc(OC)cc2)cc1 | inactive |
| COc1ccc(Oc2c(Cl)cnn(-c3ccc(-c4ccc(C)cc4)cc3)c2=O)cc1 | > 20 µM (inactive) |
| COc1ccc(Oc2c(Cl)c(OC)nn(-c3cccc(C)c3)c2=O)cc1 | 8.55 µM |
| Cc1ccc(CN2CCCCC2C(=O)N2CCN(c3ccc([N+](=O)[O-])cc3)CC2)cc1C (centres undefined) | 3.3 µM |
| Cc1cc(C)cc(-n2nc(C#N)c(=O)[nH]c2=O)c1 | > 20 µM (inactive) |
| COc1ccc(Oc2c(Cl)cnn(C(c3ccccc3)c3ccccc3C)c2=O)cc1 (centres undefined) | inactive |
| COc1ccc(Oc2c(Cl)cnn(C(C(=O)OCCC3CCCC3)c3ccccc3Cl)c2=O)cc1 (centres undefined) | > 20 µM (inactive) |
| COc1ccc(Oc2c(C)c(C)nn(Cc3ccccc3C)c2=O)cc1 | 7.31 µM |
| COc1ccc(Oc2c(C#N)cnn(Cc3ccccc3C)c2=O)cc1 | > 20 µM (inactive) |
| COc1ccc(Oc2c(Cl)cnn(C(C(=O)OC(C)C)c3ccccc3Cl)c2=O)cc1 (centres undefined) | > 11.5 µM (inactive) |
| COc1ccc(Oc2c(Cl)cnn(C(COC(C)=O)c3cccc4ccccc34)c2=O)cc1 (centres undefined) | > 20 µM (inactive) |
| O=c1c(Oc2ccc(CCl)cc2)c(Cl)cnn1Cc1cccc2ccccc12 | 7.92 µM |
| Cc1cc(C)cc(Cn2ncc(Cl)c(Oc3ccc(CO)cc3)c2=O)c1 | 3.02 µM |
| CC(C)c1ccc(Oc2c(Cl)cnn(Cc3cccc4ccccc34)c2=O)cc1 | 8.08 µM |
| Cc1cccc(Cn2ncc(Oc3ccc(CO)cc3)c(Cl)c2=O)c1 | 5.16 µM |
| COc1ccc(Oc2c(Cl)c(-c3ccc(C(F)(F)F)cc3)nn(Cc3ccccc3C)c2=O)cc1 | inactive |
| COc1ccc(Oc2c(Cl)cnn(Cc3c(C)cc(C)cc3C)c2=O)cc1 | 7.5 µM |
| COc1ccc(Oc2c(Cl)cnn(-c3ccc(Cl)cc3)c2=O)cc1 | inactive |
| Cc1ccccc1Cn1ncc(Oc2ccc(CO)cc2)c(Cl)c1=O | 6.54 µM |
| O=C(c1cnn(-c2ccc(Cl)cc2)c1C(F)(F)F)N1CCN(c2ccc([N+](=O)[O-])cc2)CC1 | 1.64 µM |
| COc1ccc(Oc2c(Cl)cnn(-c3ccc(F)cc3)c2=O)cc1 | 7.84 µM |
| NCc1ccc(Oc2c(Cl)cnn(Cc3cccc4ccccc34)c2=O)cc1 | inactive |
| CC(=O)OCc1ccc(Oc2c(Cl)cnn(Cc3cccc4ccccc34)c2=O)cc1 | 6 µM |
| COc1cccc(Oc2c(Cl)cnn(-c3cc(C)cc(C)c3)c2=O)c1 | > 20 µM (inactive) |
| CCOc1ccc(Cn2ncc(Cl)c(Oc3ccc(OC)cc3)c2=O)cc1C#N | 9.37 µM |
| CCCCOC(=O)C(c1ccccc1Cl)n1ncc(Cl)c(Oc2ccc(OC)cc2)c1=O (centres undefined) | inactive |

same assay, conditions: MCHR1-expressing cells, fluorescence antagonist assay; run 1; at 20 µM (top of the series)

| Compound | inhibition |
| --- | --- |
| COc1ccc(Oc2c(Cl)cnn(CC3CCC3)c2=O)cc1 | inactive |
